Experimental data: PMC5218480 (PLoS ONE, 2017)

System: MV-4-11 cells
Assay: Gene expression microarray analysis (Affymetrix PrimeView) and GSEA
Type: cell-based, human
Set-up: RFU PODN (11730768_x_at) / Fold change /veh PODN (11730768_x_at) / RFU LINC00158 (11744669_a_at) / Fold change /veh LINC00158 (11744669_a_at) / RFU DUSP10 (11751237_a_at) / Fold change /veh DUSP10 (11751237_a_at) / RFU ID3 (11757404_x_at) / Fold change /veh ID3 (11757404_x_at) / RFU PLEKHG5 (11737974_s_at) / Fold change /veh PLEKHG5 (11737974_s_at) / RFU LRRC4B (11730491_at) / Fold change /veh LRRC4B (11730491_at) / RFU GIMAP4 (11747438_a_at) / Fold change /veh GIMAP4 (11747438_a_at) / RFU KRT8 (11758183_x_at) / Fold change /veh KRT8 (11758183_x_at) / RFU CNN1 (11734310_a_at) / Fold change /veh CNN1 (11734310_a_at) / RFU VPS37D (11726825_at) / Fold change /veh VPS37D (11726825_at) / RFU C10orf10 (11716522_x_at) / Fold change /veh C10orf10 (11716522_x_at) / RFU KIR2DL2 /// KIR2DL4 /// KIR2DL5A /// KIR2DL5B /// KIR2DS1 /// KIR2DS2 /// KIR2DS3 /// KIR2DS4 /// KIR3DL3 /// KIR3DL3 /// KIR3DS1 (11738374_at) / Fold change /veh KIR2DL2 /// KIR2DL4 /// KIR2DL5A /// KIR2DL5B /// KIR2DS1 /// KIR2DS2 /// KIR2DS3 /// KIR2DS4 /// KIR3DL3 /// KIR3DL3 /// KIR3DS1 (11738374_at) / RFU C1QL1 (11718748_at) / Fold change /veh C1QL1 (11718748_at) / RFU TMPRSS4 (11747572_a_at) / Fold change /veh TMPRSS4 (11747572_a_at) / RFU HAMP (11756126_x_at) / Fold change /veh HAMP (11756126_x_at) / RFU RNFT2 (11725882_a_at) / Fold change /veh RNFT2 (11725882_a_at) / RFU NR4A2 (11747474_a_at) / Fold change /veh NR4A2 (11747474_a_at) / RFU ABCC12 (11746883_a_at) / Fold change /veh ABCC12 (11746883_a_at) / RFU TMEM136 (11760407_x_at) / Fold change /veh TMEM136 (11760407_x_at) / RFU CLDN22 /// WWC2 (11732394_at) / Fold change /veh CLDN22 /// WWC2 (11732394_at) / RFU HLA-DPB1 (11760878_x_at) / Fold change /veh HLA-DPB1 (11760878_x_at) / RFU SPINT1 (11716480_a_at) / Fold change /veh SPINT1 (11716480_a_at) / RFU GAP43 (11754022_s_at) / Fold change /veh GAP43 (11754022_s_at) / RFU A4GNT (11735810_at) / Fold change /veh A4GNT (11735810_at) / RFU PRB3 (11715151_x_at) / Fold change /veh PRB3 (11715151_x_at) / RFU TUBB4B (11761932_at) / Fold change /veh TUBB4B (11761932_at) / RFU CAPN14 (11732068_a_at) / Fold change /veh CAPN14 (11732068_a_at) / RFU TMCC2 (11721928_a_at) / Fold change /veh TMCC2 (11721928_a_at) / RFU IRGQ (11745062_a_at) / Fold change /veh IRGQ (11745062_a_at) / RFU FAM174B (11720279_a_at) / Fold change /veh FAM174B (11720279_a_at) / RFU TMPRSS4 (11748680_a_at) / Fold change /veh TMPRSS4 (11748680_a_at) / RFU FAM212B (11763350_a_at) / Fold change /veh FAM212B (11763350_a_at) / RFU PLEKHG5 (11743358_a_at) / Fold change /veh PLEKHG5 (11743358_a_at) / RFU ZSCAN30 (11745921_a_at) / Fold change /veh ZSCAN30 (11745921_a_at) / RFU CMKLR1 (11741424_a_at) / Fold change /veh CMKLR1 (11741424_a_at) / RFU LOC101060620 /// MAPK8IP1 (11723275_at) / Fold change /veh LOC101060620 /// MAPK8IP1 (11723275_at) / RFU SPTSSB (11747773_x_at) / Fold change /veh SPTSSB (11747773_x_at) / RFU PRSS12 (11739890_at) / Fold change /veh PRSS12 (11739890_at) / RFU BIN1 (11741810_x_at) / Fold change /veh BIN1 (11741810_x_at) / RFU WNT11 (11732464_a_at) / Fold change /veh WNT11 (11732464_a_at) / RFU C10orf10 (11716521_a_at) / Fold change /veh C10orf10 (11716521_a_at) / RFU C5orf56 (11738089_at) / Fold change /veh C5orf56 (11738089_at) / RFU CYB561 (11721691_x_at) / Fold change /veh CYB561 (11721691_x_at) / RFU ANKRD19P (11752326_a_at) / Fold change /veh ANKRD19P (11752326_a_at) / RFU OR2T12 /// OR2T33 /// OR2T8 (11738714_s_at) / Fold change /veh OR2T12 /// OR2T33 /// OR2T8 (11738714_s_at) / RFU VCAN (11748164_a_at) / Fold change /veh VCAN (11748164_a_at) / RFU JSRP1 (11732532_at) / Fold change /veh JSRP1 (11732532_at) / RFU KRTAP10-11 (11738290_x_at) / Fold change /veh KRTAP10-11 (11738290_x_at) / RFU MYO3A (11730013_a_at) / Fold change /veh MYO3A (11730013_a_at) / RFU EBF3 (11725865_a_at) / Fold change /veh EBF3 (11725865_a_at) / RFU CAMK2N1 (11719241_x_at) / Fold change /veh CAMK2N1 (11719241_x_at) / RFU C5orf56 (11738088_a_at) / Fold change /veh C5orf56 (11738088_a_at) / RFU OLFML3 (11715873_a_at) / Fold change /veh OLFML3 (11715873_a_at) / RFU LOC100653217 /// NTM (11731650_a_at) / Fold change /veh LOC100653217 /// NTM (11731650_a_at) / RFU MAPK11 (11762145_a_at) / Fold change /veh MAPK11 (11762145_a_at) / RFU FIZ1 (11724087_x_at) / Fold change /veh FIZ1 (11724087_x_at) / RFU OASL (11726364_x_at) / Fold change /veh OASL (11726364_x_at) / RFU SOX15 (11748057_x_at) / Fold change /veh SOX15 (11748057_x_at) / RFU CD79A (11719716_a_at) / Fold change /veh CD79A (11719716_a_at) / RFU HIST1H1D (11736915_at) / Fold change /veh HIST1H1D (11736915_at) / RFU CASKIN2 (11723855_a_at) / Fold change /veh CASKIN2 (11723855_a_at) / RFU LOC730098 (11760151_x_at) / Fold change /veh LOC730098 (11760151_x_at) / RFU OR4N2 (11742367_at) / Fold change /veh OR4N2 (11742367_at) / RFU PRRT2 (11749266_a_at) / Fold change /veh PRRT2 (11749266_a_at) / RFU SNX32 (11753110_a_at) / Fold change /veh SNX32 (11753110_a_at) / RFU CDHR5 (11726645_a_at) / Fold change /veh CDHR5 (11726645_a_at) / RFU RCAN1 (11760418_a_at) / Fold change /veh RCAN1 (11760418_a_at) / RFU FAM167A (11723789_a_at) / Fold change /veh FAM167A (11723789_a_at) / RFU FAM26E (11764081_at) / Fold change /veh FAM26E (11764081_at) / RFU ISYNA1 (11749810_s_at) / Fold change /veh ISYNA1 (11749810_s_at) / RFU ACY1 (11761880_at) / Fold change /veh ACY1 (11761880_at) / RFU 11764098_at / Fold change /veh 11764098_at / RFU SAMD14 (11745864_x_at) / Fold change /veh SAMD14 (11745864_x_at) / RFU NPB (11741838_a_at) / Fold change /veh NPB (11741838_a_at) / RFU TMPRSS6 (11731388_a_at) / Fold change /veh TMPRSS6 (11731388_a_at) / RFU KRTAP10-2 (11738614_at) / Fold change /veh KRTAP10-2 (11738614_at) / RFU ARHGAP8 /// PRR5-ARHGAP8 (11727945_x_at) / Fold change /veh ARHGAP8 /// PRR5-ARHGAP8 (11727945_x_at) / RFU KRTAP5-7 /// NADSYN1 (11734609_at) / Fold change /veh KRTAP5-7 /// NADSYN1 (11734609_at) / RFU RASL12 (11751679_a_at) / Fold change /veh RASL12 (11751679_a_at) / RFU CDKN2B (11736163_a_at) / Fold change /veh CDKN2B (11736163_a_at) / RFU PRF1 (11729649_at) / Fold change /veh PRF1 (11729649_at) / RFU, ZNF638 /// ZNF638-IT1 / Fold change vs veh, ZNF638 /// ZNF638-IT1 / RFU, PANK3 / Fold change vs veh, PANK3 / RFU, SH3YL1 / Fold change vs veh, SH3YL1 / RFU, ZEB2 / Fold change vs veh, ZEB2 / RFU, NRIP1 / Fold change vs veh, NRIP1 / RFU, PTTG1IP / Fold change vs veh, PTTG1IP / RFU, CAPN2 / Fold change vs veh, CAPN2 / RFU, MED14 / Fold change vs veh, MED14 / RFU, SNORA58 / Fold change vs veh, SNORA58 / RFU, C1orf63 / Fold change vs veh, C1orf63 / RFU, LRRFIP1 / Fold change vs veh, LRRFIP1 / RFU, NDUFAF7 / Fold change vs veh, NDUFAF7 / RFU, SLC12A2 / Fold change vs veh, SLC12A2 / RFU, IBTK / Fold change vs veh, IBTK / RFU, ESF1 / Fold change vs veh, ESF1 / Fold change vs veh, TMEM50B / RFU, TAOK1 / Fold change vs veh, TAOK1 / RFU, ACBD3 / Fold change vs veh, ACBD3 / RFU, TMA16 / Fold change vs veh, TMA16 / RFU, RWDD3 / Fold change vs veh, RWDD3 / RFU, BCAT1 / Fold change vs veh, BCAT1 / RFU, EDEM3 / Fold change vs veh, EDEM3 / RFU, TMEM33 / Fold change vs veh, TMEM33 / RFU, WDR75 / Fold change vs veh, WDR75 / RFU, AHCTF1 / Fold change vs veh, AHCTF1 / RFU, TFRC / Fold change vs veh, TFRC / RFU, ZDHHC17 / Fold change vs veh, ZDHHC17 / RFU, NOM1 / Fold change vs veh, NOM1 / RFU, ARL8B / Fold change vs veh, ARL8B / RFU, ZBTB11 / Fold change vs veh, ZBTB11 / RFU, TAMM41 / Fold change vs veh, TAMM41 / RFU, KIAA1704 /// LOC100996395 / Fold change vs veh, KIAA1704 /// LOC100996395 / RFU, ING1 / Fold change vs veh, ING1 / RFU, TRMT61B / Fold change vs veh, TRMT61B / RFU, FUBP3 / Fold change vs veh, FUBP3 / RFU, TP53 / Fold change vs veh, TP53 / RFU, TNKS2 / Fold change vs veh, TNKS2 / RFU, ZFP14 / Fold change vs veh, ZFP14 / RFU, ACTR2 / Fold change vs veh, ACTR2 / RFU, PPP3R1 / Fold change vs veh, PPP3R1 / RFU, PIK3R1 / Fold change vs veh, PIK3R1 / RFU, HNRNPA1 / Fold change vs veh, HNRNPA1 / RFU, RNF170 / Fold change vs veh, RNF170 / RFU, ZNF28 / Fold change vs veh, ZNF28 / RFU, RNGTT / Fold change vs veh, RNGTT / RFU, OGT / Fold change vs veh, OGT / RFU, BRD1 / Fold change vs veh, BRD1 / RFU, MARS / Fold change vs veh, MARS / RFU, ZNF655 / Fold change vs veh, ZNF655 / RFU, FAHD1 / Fold change vs veh, FAHD1 / RFU, BDP1 / Fold change vs veh, BDP1 / RFU, LRRCC1 / Fold change vs veh, LRRCC1 / RFU, ARID1A / Fold change vs veh, ARID1A / RFU, ZNF146 / Fold change vs veh, ZNF146 / RFU, ZNF330 / Fold change vs veh, ZNF330 / RFU, GPN3 / Fold change vs veh, GPN3 / RFU, C9orf123 / Fold change vs veh, C9orf123 / RFU, N4BP2L2 / Fold change vs veh, N4BP2L2 / RFU, ARFIP1 / Fold change vs veh, ARFIP1 / RFU, FAM179B / Fold change vs veh, FAM179B / RFU, BCL10 / Fold change vs veh, BCL10 / RFU, UHRF1BP1L / Fold change vs veh, UHRF1BP1L / RFU, BET1 / Fold change vs veh, BET1 / RFU, CNOT2 / Fold change vs veh, CNOT2 / RFU, ZNF268 / Fold change vs veh, ZNF268 / Fold change vs veh, ZNF507 / RFU, DGCR2 / Fold change vs veh, DGCR2 / RFU, WDSUB1 / Fold change vs veh, WDSUB1 / Fold change vs veh, HSP90B1 /// MIR3652 / RFU, ADSS / Fold change vs veh, ADSS / RFU, GK / Fold change vs veh, GK / RFU, ZNF148 / Fold change vs veh, ZNF148 / RFU, TAF9 / Fold change vs veh, TAF9 / RFU, SLC1A5 / Fold change vs veh, SLC1A5 / RFU, SLMO2 / Fold change vs veh, SLMO2 / RFU, ABCC4 / Fold change vs veh, ABCC4 / RFU, LOC101060439 /// RAP1B / Fold change vs veh, LOC101060439 /// RAP1B / RFU, RFX7 / Fold change vs veh, RFX7 / RFU, GTPBP10 / Fold change vs veh, GTPBP10 / RFU, CNEP1R1 / Fold change vs veh, CNEP1R1 / RFU, BIVM-ERCC5 /// ERCC5 / Fold change vs veh, BIVM-ERCC5 /// ERCC5 / RFU, ILF3 / Fold change vs veh, ILF3 / RFU 11762660_at / Fold change /veh 11762660_at / RFU VCAN (11757783_s_at) / Fold change /veh VCAN (11757783_s_at) / RFU DDX43 (11728927_at) / Fold change /veh DDX43 (11728927_at) / RFU KRT8 (11758188_x_at) / Fold change /veh KRT8 (11758188_x_at) / RFU NKD1 (11759106_at) / Fold change /veh NKD1 (11759106_at) / RFU SRD5A1 (11742802_a_at) / Fold change /veh SRD5A1 (11742802_a_at) / RFU TPSAB1 /// TPSB2 (11721975_s_at) / Fold change /veh TPSAB1 /// TPSB2 (11721975_s_at) / RFU GSTM3 (11746129_a_at) / Fold change /veh GSTM3 (11746129_a_at) / RFU IL23R (11737362_x_at) / Fold change /veh IL23R (11737362_x_at) / RFU TMEM51 (11727254_a_at) / Fold change /veh TMEM51 (11727254_a_at) / RFU PIWIL2 (11732686_x_at) / Fold change /veh PIWIL2 (11732686_x_at) / RFU ORM1 (11744905_x_at) / Fold change /veh ORM1 (11744905_x_at) / RFU CCDC152 (11743942_at) / Fold change /veh CCDC152 (11743942_at) / RFU ECM1 (11717891_a_at) / Fold change /veh ECM1 (11717891_a_at) / RFU IL23R (11748794_a_at) / Fold change /veh IL23R (11748794_a_at) / RFU TNFAIP8L3 (11732012_x_at) / Fold change /veh TNFAIP8L3 (11732012_x_at) / RFU MBOAT4 (11741988_at) / Fold change /veh MBOAT4 (11741988_at) / RFU 11764193_at / Fold change /veh 11764193_at / RFU TMEM53 (11763286_at) / Fold change /veh TMEM53 (11763286_at) / RFU MAGEB2 (11727129_at) / Fold change /veh MAGEB2 (11727129_at) / RFU TMEM200A (11744735_a_at) / Fold change /veh TMEM200A (11744735_a_at) / RFU CCDC152 (11751479_a_at) / Fold change /veh CCDC152 (11751479_a_at) / RFU FAM211A (11726209_a_at) / Fold change /veh FAM211A (11726209_a_at) / RFU RGS16 (11746705_a_at) / Fold change /veh RGS16 (11746705_a_at) / RFU VCAN (11755009_s_at) / Fold change /veh VCAN (11755009_s_at) / RFU RHOB (11743442_s_at) / Fold change /veh RHOB (11743442_s_at) / RFU RGS16 (11720943_a_at) / Fold change /veh RGS16 (11720943_a_at) / RFU RGS16 (11720944_at) / Fold change /veh RGS16 (11720944_at) / RFU, VPS4B / Fold change vs veh, VPS4B / RFU, CREB1 / Fold change vs veh, CREB1 / RFU, DNAJC13 / Fold change vs veh, DNAJC13 / RFU, GNAQ / Fold change vs veh, GNAQ / RFU, CDK5R1 / Fold change vs veh, CDK5R1 / RFU, ZRANB3 / Fold change vs veh, ZRANB3 / RFU, CUL4A / Fold change vs veh, CUL4A / RFU, CCNY / Fold change vs veh, CCNY / RFU, UFL1 / Fold change vs veh, UFL1 / RFU, COG3 / Fold change vs veh, COG3 / RFU, DIAPH2 / Fold change vs veh, DIAPH2 / RFU, SKA2 / Fold change vs veh, SKA2 / RFU, AFF3 / Fold change vs veh, AFF3 / RFU, LMF1 / Fold change vs veh, LMF1 / RFU, IPO11 / Fold change vs veh, IPO11 / RFU, DFFB / Fold change vs veh, DFFB / RFU, FOXP1 / Fold change vs veh, FOXP1 / RFU, CARD8 / Fold change vs veh, CARD8 / RFU, STRN3 / Fold change vs veh, STRN3 / RFU, ADK / Fold change vs veh, ADK / RFU, RASSF2 / Fold change vs veh, RASSF2 / RFU, WIPF1 / Fold change vs veh, WIPF1 / RFU, LARP1B / Fold change vs veh, LARP1B / RFU, RASA1 / Fold change vs veh, RASA1 / RFU, RB1 / Fold change vs veh, RB1 / RFU, PPFIA1 / Fold change vs veh, PPFIA1 / RFU, MAT2A / Fold change vs veh, MAT2A / RFU, CCT5 / Fold change vs veh, CCT5 / RFU, WDR92 / Fold change vs veh, WDR92 / RFU, CUX1 / Fold change vs veh, CUX1 / RFU, TTC7A / Fold change vs veh, TTC7A / RFU, TMEM135 / Fold change vs veh, TMEM135 / RFU, DEPTOR / Fold change vs veh, DEPTOR / RFU, CPM / Fold change vs veh, CPM / RFU, DNAJB6 / Fold change vs veh, DNAJB6 / RFU, CACNA2D3 / Fold change vs veh, CACNA2D3 / RFU, DTX4 / Fold change vs veh, DTX4 / RFU, TFCP2 / Fold change vs veh, TFCP2 / RFU, GMCL1 /// GMCL1P1 / Fold change vs veh, GMCL1 /// GMCL1P1 / RFU, AEBP2 / Fold change vs veh, AEBP2 / RFU, SNHG1 /// SNORD22 /// SNORD25 /// SNORD26 /// SNORD27 /// SNORD28 /// SNORD29 /// SNORD31 / Fold change vs veh, SNHG1 /// SNORD22 /// SNORD25 /// SNORD26 /// SNORD27 /// SNORD28 /// SNORD29 /// SNORD31 / Fold change (Aza/veh), C12orf56 (ProbeSet 11735607_a_at) / Fold change (ACY-1035/veh), C12orf56 (ProbeSet 11735607_a_at) / Fold change (Aza/veh), FGFR1OP (ProbeSet 11751329_s_at) / Fold change (ACY-1035/veh), FGFR1OP (ProbeSet 11751329_s_at) / Fold change (Aza/veh), VPS36 (ProbeSet 11739960_a_at) / Fold change (ACY-1035/veh), VPS36 (ProbeSet 11739960_a_at) / RFU SYPL1 (11715823_x_at) / Fold change /veh SYPL1 (11715823_x_at) / RFU IGFBP7 (11715501_s_at) / Fold change /veh IGFBP7 (11715501_s_at) / RFU REEP3 (11722064_at) / Fold change /veh REEP3 (11722064_at) / RFU IGLL1 (11728026_x_at) / Fold change /veh IGLL1 (11728026_x_at): dose or concentration left out as unconfirmed
Conditions: ProbeSet 11741070_a_at; LIST B

## Nc1ncn([C@@H]2O[C@H](CO)[C@@H](O)[C@H]2O)c(=O)n1 [azacitidine]
  Fold change vs veh, ZNF146: 0.88
